Earlier results as cited in patent EP2338500A1, “Process for producing concentrated and refined actives from tissues and byproducts of Olea europaea with membrane technologies” (Phenofarm S.r.l., priority 2009, dated 2011).

System: murine leukemic cells P-388
Conditions: P-388 cells

Row | Structure (SMILES) | cytotoxic activity at a concentration ED50
1 | C[C@@H]1O[C@@H](O[C@@H]2[C@@H](O)[C@H](OCCc3ccc(O)c(O)c3)O[C@H](COC(=O)/C=C/c3ccc(O)c(O)c3)[C@H]2O)[C@H](O)[C@H](O)[C@H]1O [isoverbascoside] | 10 µg/mL
2 | C[C@@H]1O[C@@H](O[C@@H]2[C@@H](O)[C@H](OCCc3ccc(O)c(O)c3)O[C@H](CO)[C@H]2OC(=O)/C=C/c2ccc(O)c(O)c2)[C@H](O)[C@H](O)[C@H]1O [verbascoside] | 26 µg/mL
